Source: ChEMBL document CHEMBL3885881, “DrugMatrix”

Organism: Rattus norvegicus
Test: DrugMatrix - Regimen: Daily Repeat
Assay type: toxicity, organism-based, Sprague-Dawley
Design: regimen Daily Repeat, gender Male, age 6-8 weeks
Details: in vivo, po, route oral GAVAGE, […]; for ABSOLUTE BASOPHIL / ABSOLUTE EOSINOPHIL / ABSOLUTE LYMPHOCYTE / ABSOLUTE MONOCYTE / ABSOLUTE SEGMENTED NEUTROPHIL / BASOPHIL / EOSINOPHIL / ERYTHROCYTE COUNT / HEMATOCRIT / HEMOGLOBIN / LEUKOCYTE COUNT / LYMPHOCYTE / MEAN CORPUSCULAR HEMOGLOBIN / MEAN CORPUSCULAR HEMOGLOBIN CONCENTRATION / MEAN CORPUSCULAR VOLUME / MONOCYTE / NEUTROPHIL / NUCLEATED RED BLOOD CELLS / PLATELET COUNT: tissue Blood; for ALANINE AMINOTRANSFERASE / ALKALINE PHOSPHATASE / ASPARTATE AMINOTRANSFERASE / BLOOD UREA NITROGEN / CARBON DIOXIDE / CHLORIDE / CHOLESTEROL / CREATINE PHOSPHOKINASE / CREATININE / GLUCOSE / LACTATE DEHYDROGENASE / LIPASE / PHOSPHORUS / POTASSIUM / SODIUM / TOTAL BILIRUBIN / TOTAL PROTEIN / URIC ACID: tissue Plasma
[1] = 0 mg/kg, 72 h, dose level Control, time 3 day
[2] = 0 mg/kg, 120 h, dose level Control, time 5 day
[3] = 36 mg/kg, 72 h, dose level Low, time 3 day

For `c1ccc2c(c1)Nc1ccccc1S2` [PHENOTHIAZINE], the “ABSOLUTE BASOPHIL” value [1] was 0 CELLS/uL, the “ABSOLUTE EOSINOPHIL” value [1] was 0 CELLS/uL and the “ABSOLUTE LYMPHOCYTE” value [1] was 6275.67 CELLS/uL. For the same molecule, the “ABSOLUTE MONOCYTE” value [1] was 40.67 CELLS/uL, the “ABSOLUTE SEGMENTED NEUTROPHIL” value [1] was 633.67 CELLS/uL and the BASOPHIL [1] was 0%. For the same molecule, the EOSINOPHIL [1] was 0%, the “ERYTHROCYTE COUNT” value [1] was 5.2 x10E6/uL and the HEMATOCRIT [1] was 32.78%. For the same molecule, the HEMOGLOBIN [1] was 12.98 G/DL, the “LEUKOCYTE COUNT” value [1] was 6.95 x10E3/uL and the LYMPHOCYTE [1] was 90.17%. The “MEAN CORPUSCULAR HEMOGLOBIN” value [1] was 24.97 pg, the “MEAN CORPUSCULAR HEMOGLOBIN CONCENTRATION” value [1] was 39.62 G/DL and the “MEAN CORPUSCULAR VOLUME” value [1] was 63.03 fL. For the same molecule, the MONOCYTE [1] was 0.67%, the NEUTROPHIL [1] was 9.17% and the “NUCLEATED RED BLOOD CELLS” value [1] was 0 /100WBC. The “PLATELET COUNT” value [1] was 1082.83 x10E3/uL, the “ALANINE AMINOTRANSFERASE” value [1] was 69.67 u/L and the “ALKALINE PHOSPHATASE” value [1] was 430.5 u/L. For the same molecule, the “ASPARTATE AMINOTRANSFERASE” value [1] was 90.83 u/L, the “BLOOD UREA NITROGEN” value [1] was 13 mg/dL and the “CARBON DIOXIDE” value [1] was 33 mmol/L. The CHLORIDE [1] was 99.17 MEQ/L, the CHOLESTEROL [1] was 70.5 mg/dL and the “CREATINE PHOSPHOKINASE” value [1] was 253.33 u/L. For the same molecule, the CREATININE [1] was 0.13 mg/dL, the GLUCOSE [1] was 157.17 mg/dL and the “LACTATE DEHYDROGENASE” value [1] was 85 u/L. For the same molecule, the LIPASE [1] was 10 u/L, the PHOSPHORUS [1] was 10.2 mg/dL and the POTASSIUM [1] was 5.78 MEQ/L. The SODIUM [1] was 144.12 MEQ/L, the “TOTAL BILIRUBIN” value [1] was 0.2 mg/dL and the “TOTAL PROTEIN” value [1] was 5.8 G/DL. The “URIC ACID” value [1] was 0.8 mg/dL, the “ABSOLUTE BASOPHIL” value [2] was 0 CELLS/uL and the “ABSOLUTE EOSINOPHIL” value [2] was 0 CELLS/uL. The “ABSOLUTE LYMPHOCYTE” value [2] was 10431 CELLS/uL, the “ABSOLUTE MONOCYTE” value [2] was 90.5 CELLS/uL and the “ABSOLUTE SEGMENTED NEUTROPHIL” value [2] was 1111.83 CELLS/uL. The BASOPHIL [2] was 0%, the EOSINOPHIL [2] was 0% and the “ERYTHROCYTE COUNT” value [2] was 5.51 x10E6/uL. The HEMATOCRIT [2] was 34.67%, the HEMOGLOBIN [2] was 13.5 G/DL and the “LEUKOCYTE COUNT” value [2] was 11.63 x10E3/uL. For the same molecule, the LYMPHOCYTE [2] was 89.67%, the “MEAN CORPUSCULAR HEMOGLOBIN” value [2] was 24.5 pg and the “MEAN CORPUSCULAR HEMOGLOBIN CONCENTRATION” value [2] was 38.95 G/DL. For the same molecule, the “MEAN CORPUSCULAR VOLUME” value [2] was 62.87 fL, the MONOCYTE [2] was 0.67% and the NEUTROPHIL [2] was 9.67%. For the same molecule, the “NUCLEATED RED BLOOD CELLS” value [2] was 0 /100WBC, the “PLATELET COUNT” value [2] was 1052.67 x10E3/uL and the “ALANINE AMINOTRANSFERASE” value [2] was 54.67 u/L. The “ALKALINE PHOSPHATASE” value [2] was 359.83 u/L, the “ASPARTATE AMINOTRANSFERASE” value [2] was 83 u/L and the “BLOOD UREA NITROGEN” value [2] was 13.5 mg/dL. The “CARBON DIOXIDE” value [2] was 27.17 mmol/L, the CHLORIDE [2] was 98.5 MEQ/L and the CHOLESTEROL [2] was 66.83 mg/dL. For the same molecule, the “CREATINE PHOSPHOKINASE” value [2] was 256.17 u/L, the CREATININE [2] was 0.19 mg/dL and the GLUCOSE [2] was 171.33 mg/dL. The “LACTATE DEHYDROGENASE” value [2] was 91.5 u/L, the LIPASE [2] was 10.5 u/L and the PHOSPHORUS [2] was 8.72 mg/dL. For the same molecule, the POTASSIUM [2] was 5.34 MEQ/L, the SODIUM [2] was 142.53 MEQ/L and the “TOTAL BILIRUBIN” value [2] was 0.2 mg/dL. The “TOTAL PROTEIN” value [2] was 6.05 G/DL, the “URIC ACID” value [2] was 0.6 mg/dL and the “ABSOLUTE BASOPHIL” value [3] was 0 CELLS/uL. The “ABSOLUTE EOSINOPHIL” value [3] was 54.67 CELLS/uL, the “ABSOLUTE LYMPHOCYTE” value [3] was 10865.33 CELLS/uL and the “ABSOLUTE MONOCYTE” value [3] was 53.67 CELLS/uL. For the same molecule, the “ABSOLUTE SEGMENTED NEUTROPHIL” value [3] was 926.33 CELLS/uL, the BASOPHIL [3] was 0% and the EOSINOPHIL [3] was 0.67%. The “ERYTHROCYTE COUNT” value [3] was 5.23 x10E6/uL, the HEMATOCRIT [3] was 34.4% and the HEMOGLOBIN [3] was 13.4 G/DL. The “LEUKOCYTE COUNT” value [3] was 11.9 x10E3/uL, the LYMPHOCYTE [3] was 91% and the “MEAN CORPUSCULAR HEMOGLOBIN” value [3] was 25.6 pg. The “MEAN CORPUSCULAR HEMOGLOBIN CONCENTRATION” value [3] was 39 G/DL, the “MEAN CORPUSCULAR VOLUME” value [3] was 65.73 fL and the MONOCYTE [3] was 0.33%. The NEUTROPHIL [3] was 8%, the “NUCLEATED RED BLOOD CELLS” value [3] was 0 /100WBC and the “PLATELET COUNT” value [3] was 973 x10E3/uL. The “ALANINE AMINOTRANSFERASE” value [3] was 62.67 u/L, the “ALKALINE PHOSPHATASE” value [3] was 333.33 u/L and the “ASPARTATE AMINOTRANSFERASE” value [3] was 94.33 u/L. For the same molecule, the “BLOOD UREA NITROGEN” value [3] was 11.67 mg/dL, the “CARBON DIOXIDE” value [3] was 26.67 mmol/L and the CHLORIDE [3] was 98 MEQ/L. For the same molecule, the CHOLESTEROL [3] was 63.67 mg/dL, the “CREATINE PHOSPHOKINASE” value [3] was 272.33 u/L and the CREATININE [3] was 0.28 mg/dL. For the same molecule, the GLUCOSE [3] was 138 mg/dL, the “LACTATE DEHYDROGENASE” value [3] was 84 u/L and the LIPASE [3] was 10.33 u/L. It also gave a PHOSPHORUS [3] of 10.03 mg/dL, a POTASSIUM [3] of 5.46 MEQ/L and an SODIUM [3] of 142.1 MEQ/L. The “TOTAL BILIRUBIN” value [3] was 0.17 mg/dL, the “TOTAL PROTEIN” value [3] was 5.37 G/DL and the “URIC ACID” value [3] was 0.57 mg/dL.
